The test system of data set [1] is Mus musculus. Nature of the data set: Antiinflammatory activity in LPS-induced acute lung injury mouse model assessed as pathological score at 1 mg/kg, ip by hematoxylin and eosin staining based analysis. Format: functional.
The target of data set [2] is T1, Transient receptor potential cation channel subfamily V member 4 (Homo sapiens, UniProt Q9HBA0). Nature of the data set: Antagonist activity at TRPV4 (unknown origin) expressed in Flp-In-CHO cells assessed as inhibition of GSK1016790A induced Ca2+ influx by calcium imaging method. Format: cell-based.
Data set [3] relates to Mus musculus. Nature of the data set: Antiinflammatory activity in LPS-induced acute lung injury mouse model assessed as BALF protein concentration at 1 mg/kg, ip. Format: functional.
In data set [4] the target is T1, Transient receptor potential cation channel subfamily V member 4. Nature of the data set: Antagonist activity at human TRPV4.
The nature of data set [5]: Cytotoxicity against human HUVEC cells assessed as reduction in cell viability. Format: toxicity, cell-based.

Bounds are passed on as bounds.

T1 sequence (Q9HBA0 whole entry): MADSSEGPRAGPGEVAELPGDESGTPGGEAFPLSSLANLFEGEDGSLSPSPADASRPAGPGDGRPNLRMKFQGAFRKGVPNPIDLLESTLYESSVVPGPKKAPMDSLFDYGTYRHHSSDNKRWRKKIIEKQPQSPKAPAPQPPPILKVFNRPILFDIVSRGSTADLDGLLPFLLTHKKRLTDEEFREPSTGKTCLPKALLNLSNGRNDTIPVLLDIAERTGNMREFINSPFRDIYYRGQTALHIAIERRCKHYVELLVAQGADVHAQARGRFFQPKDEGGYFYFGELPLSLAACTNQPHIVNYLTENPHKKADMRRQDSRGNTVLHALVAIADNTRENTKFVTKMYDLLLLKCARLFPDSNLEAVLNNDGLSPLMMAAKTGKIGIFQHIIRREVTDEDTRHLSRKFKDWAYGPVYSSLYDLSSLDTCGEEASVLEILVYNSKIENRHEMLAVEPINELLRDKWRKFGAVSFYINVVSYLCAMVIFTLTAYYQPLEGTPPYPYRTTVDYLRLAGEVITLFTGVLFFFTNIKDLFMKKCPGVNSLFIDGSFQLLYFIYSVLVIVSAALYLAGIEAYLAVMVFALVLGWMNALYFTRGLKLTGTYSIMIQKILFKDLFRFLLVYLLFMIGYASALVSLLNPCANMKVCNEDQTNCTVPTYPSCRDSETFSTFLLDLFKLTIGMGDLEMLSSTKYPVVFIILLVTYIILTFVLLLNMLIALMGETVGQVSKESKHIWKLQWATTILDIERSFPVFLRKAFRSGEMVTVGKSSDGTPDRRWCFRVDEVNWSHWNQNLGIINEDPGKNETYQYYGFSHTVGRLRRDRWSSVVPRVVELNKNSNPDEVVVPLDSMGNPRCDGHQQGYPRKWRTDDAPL

As for `Cc1c(C(=O)Nc2cccc(C(F)(F)F)c2)cc(-c2ccccc2)n1CCCN1CCOCC1`, the values for the Activity in the data set with Mus musculus [1] and with Mus musculus [3] were 5.4 and 1.5, respectively. The figures for the IC50 in data set [2] and in data set [4] were 73.6 nM and 203 nM, respectively.

In the case of `CC(C)C[C@H](NC(=O)c1cc2ccccc2s1)C(=O)N1CCN(C(=O)[C@H](CO)NS(=O)(=O)c2ccc(Cl)cc2Cl)CC1`, the 50% inhibitory concentration (IC50) in data set [2] was found to be 122 nM.

For `CC(=O)Nc1c(Cl)c(Cl)cc2c1nc(NC(C)C)n2C1CCN(c2ccc(C3(C#N)CCCC3)cc2)CC1`, in data set [5], the CC50 was above 100000 nM.

Turning to `CC(=O)Nc1c(Cl)c(Cl)cc2c1nc(NC(C)C)n2C1CCN(c2ccc(C3(C#N)CCC3)cc2)CC1`, the CC50 in data set [5] is above 100000 nM.
